Patent US6995150B2, “Pharmaceutical compositions and uses for androst-5-ene-3β, 17β-diol” (Endorecherche, Inc., priority 1998, dated 2006)
“Also recorded” adds a separate entry of the source.

Assays:
MCF-7 cells = conditions: cited from earlier work
ovariectomized rats [1] = experiment: Uterine weight in ovariectomized rats, subcutaneous administration twice daily for 7 days; format: in vivo, rat; conditions: for dose giving half-maximal stimulation of uterine weight: OVX rats
Experimental: (§1) Intact animals are used as additional controls.
(§2) Male and female Sprague-Dawley rats [Crl: CD (SD)Br] weighing 225-250 g and 175-200 g, respectively, were obtained from Charles River Canada Inc. (St-Constant, Québec) and housed 2 per cage under a regimen of 14 h of light/da, (lights on at 07:15 h). Animals received Purina rat chow and water ad libitum. The animal studies were conducted to the “Guideline for Care and use of Experimental Animals”.
(§3) The animals were randomly divided into the indicated groups (8 and 10 rats per group for subcutaneous and topical administration, respectively). The animals of the appropriate groups were bilaterally ovariectomized (OVX) or orchiectomized (ORCH) under ether anesthesia while other rats were used as intact controls.
(§4) Seven days after starting treatment or approximately 12 h after last administration of the steroid, the animals were killed by decapitation. Blood samples were collected individually and serum was frozen at −20° C. until assayed. Uteri, ovaries, ventral prostates, dorsal prostates and seminal vesicles were immediately removed, freed from connective and adipose tissue, weighed, frozen in liquid nitrogen, and stored at −80° C. until assayed. Three rats from the indicated treatment groups were perfused with paraformaldehyde for in situ hybridization.

ovariectomized rats [2] = experiment: Serum LH concentration in ovariectomized rats, percutaneous administration; format: in vivo, rat; conditions: OVX rats
Experimental: (§5) Intact animals are used as additional controls. The compounds were dissolved in 50% ethanol-50% propylene glycol and were administered in 0.1 ml on the dorsal skin area (2 cm×2 cm).
as §2, §3, §4
Serum LH was measured by double-antibody radioimmunoassay using rat hormones (LH-I-6 for iodination; LH-RP-2 as standard), and the rabbit antisera anti-r-LH-S-8, generously supplied by the National Pituitary Program, Baltimore, USA.
(§6) Radioimmunoassay data were analyzed using a program based on model II of Rodbard and Lewald (Rodbard, 1974). Plasma steroid levels are shown as the means±SEM of duplicate determinations of individual samples. In situ hybridization data were obtained as follows: for each prostatic tissue section, 20 randomly selected areas measuring 0.25 mm^2 (excluding acinar lumen) were analyzed using an Image Research Analysis System (Amersham, Arlington Heights, Ill.) and the mean optical density value for each section was calculated. Data are shown as the means±SEM of 20 readings from 6-8 prostatic sections originating from ventral 3 prostates. Statistical significance was measured according to the multiple range test of Duncan-Kramer (Kramer, 1956).

[3] = Serum steroid concentrations (DHEA, 5-DIOL, 4-dione, testosterone, DHT) in ovariectomized rats, percutaneous administration; conditions: for serum levels of 5-DIOL, 5-DIOL versus DHEA: higher doses; for concentration at 12 h: female, Sprague-Dawley, rat, in vivo
Experimental: as §5, §5, §5
Intact animals are used as additional controls. The compounds were dissolved in 50% ethanol-50% propylene glycol and were administered in 0.1 ml on the dorsal skin in area (2 cm×2 cm).
as §5, §2, §3, §4
Steroid extraction, Ethanol (5 ml) was added to 1 ml serum and centrifugation at 2000×g was preformed for 15 min. The resulting pellet was further extracted with 2 ml ethanol and, after a second centrifugation at 2000×g for 15 min, the two supernatants were combined. The suspension was recentrifuged as described above and the supernatant was decanted and combined with the previously obtained ethanol extracts. The organic solvent was then evaporated under nitrogen and the residue was dissolved in 1 ml water: methanol (95:5, v/v). The C-18 columns (Bound-Elut, Amersham, Bucks, U.K.) were conditioned by passing consecutively 10 ml methanol, 10 ml water and 10 ml methanol/water (5:95, v/v). The extracts solubilized in water:methanol (95:5, v/v) were then deposited on the C-18 columns. After washing the columns with 2 ml water:methanol (95:5, v/v) and 5 ml methanol:water (50:50, v/v), 5 ml methanol:water (85:15, v/v) were added to eluate the non-conjugated steroids.
Chromatography on Sephadex LH-20 columns (Pharmacia, Uppsala, Sweden) was performed as previously described (Bélanger et al., 1988). In brief, steroids were solubilized in 1 ml isooctane/toluene/methanol (90:5:5, v:v:v) and deposited on the LH-20 columns. Fractions were collected and, after evaporation of the organic solvent, the concentration of the various steroids was determined by radioimmunoassay as previously described (Bélanger et al., 1980; Bélanger et al., 1988; Bélanger et al., 1990)
Radioimmunoassay data were analyzed using a program based on model II of Rodbard and Lewald (Rodbard, 1974). Plasma steroid levels are shown as the means±SEM of duplicate determinations of individual samples.

orchiectomized rats [4] = experiment: Prostate and seminal vesicle weight in orchiectomized rats, subcutaneous administration; format: in vivo, rat; conditions: ORCH rats; for ED50 of maximal effect on prostate weight: half of each compound's own maximal effect
Experimental: as §1, §1, §2, §3, §4

[5] = system: human mammary tumor ZR-75-1 cells; conditions: concentrations within range of plasma levels in adult women; cited from earlier work
orchiectomized rats [6] = experiment: Ventral prostate and seminal vesicle weight in orchiectomized rats, percutaneous administration; format: in vivo, rat
Experimental: as §1, §1, §2, §3, §4

ovariectomized rats [7] = experiment: Uterine weight in ovariectomized rats, percutaneous administration twice daily for 7 days; format: in vivo, rat; conditions: for effect on uterine weight: percutaneous; for maximal reversal of the inhibitory effect of ovariectomy on uterine weight: 100 mg percutaneous twice daily, 7 days
Experimental: as §5, §2, §3, §4

[8] = system: mRNAs encoding the C1 and C3 components of prostatic binding protein; experiment: PBP-C1 and PBP-C3 mRNA in the ventral prostate of orchiectomized rats, percutaneous administration; format: in vivo, rat; conditions: ORCH rats, depending on dosage
Experimental: as §1, §1, §2
The animals were randomly divided into the indicated groups (8 and 10 rats per group for subcutaneous and topical administration, respectively). […]
as §6, with “Plasma steroid levels are shown as the means±SEM of duplicate determinations of individual samples.” left out

| Compound | dose giving half-maximal stimulation of uterine weight (ovariectomized rats [1]) [mg] | inhibition of serum LH below the value in intact control animals (ovariectomized rats [2]; 30 mg dose) | inhibition of serum LH below the value in intact control animals (ovariectomized rats [2]; 100 mg dose) [%] | serum levels of 5-DIOL, 5-DIOL versus DHEA ([3]; percutaneous, OVX rats) | ED50, dose giving half-maximal reversal of the effect of orchiectomy on prostate weight (orchiectomized rats [4]) [mg] | half-maximal reversal of the effect of orchiectomy on seminal vesicle weight (dose) (orchiectomized rats [4]) [mg] | ED50 of maximal effect on prostate weight (orchiectomized rats [4]) [mg] | effect on uterine weight (ovariectomized rats [7]; 10 mg and 30 mg doses) | maximal reversal of the inhibitory effect of ovariectomy on uterine weight (ovariectomized rats [7]) [%] | effect on uterine weight (ovariectomized rats [7]; 1 and 3 mg doses) | also measured |
| --- | --- | --- | --- | --- | --- | --- | --- | --- | --- | --- | --- |
| C[C@]12CC[C@H]3[C@@H](CC=C4C[C@@H](O)CC[C@@]43C)[C@@H]1CC[C@@H]2O [5-DIOL, androst-5-ene-3β,17β-diol] | 0.5 | approximately 35% | ~70 | no significant difference | 1 | ~1.2 | 1.2 | comparable stimulation | 52 | no significant effect | estrogen-dependent synthesis of the 52 kDa glycoprotein (MCF-7 cells): increases; reversal of the effect of 1-week ovariectomy on uterine weight (ovariectomized rats [1]; 0.3 mg): 90%; serum LH (ovariectomized rats [2]; 10 mg dose): 0.86 ± 0.17 ng/mL; serum DHEA level ([3]; 3, 10, 30 and 100 mg dosages, percutaneous, OVX rats): relatively constant but low level; levels of serum DHT ([3]; across the dosage range, percutaneous, OVX rats): substantially constant and relatively low; serum levels of 5-DIOL compared with the other steroid ([3]; lower doses, 1 and 3 mg, percutaneous, OVX rats): higher levels; cell proliferation [5]: enhances cell proliferation; progesterone receptor levels [5]: enhances; reversal of the effect of castration on ventral prostate weight (orchiectomized rats [6]; 15 mg dose, percutaneous): 50% |
| C[C@]12CC[C@H](O)CC1=CC[C@@H]1[C@@H]2CC[C@]2(C)C(=O)CC[C@@H]12 [DHEA, dehydroepiandrosterone] | ~2.5 | approximately 35% | ~70 | no significant difference | 1 | ~2.5 | 2.5 | comparable stimulation | 42 | no significant effect | effect on uterine weight (ovariectomized rats [1]; 0.3 mg): no significant effect; inhibitory effect on serum LH (ovariectomized rats [2]; 10 mg dose): 61%; concentration at 12 h ([3]; 3 mg): 1.74 ± 0.3 nM; concentration at 12 h ([3]; 30 mg): 12.9 ± 3.69 nM; concentration at 12 h ([3]; 100 mg): 39.2 ± 6.5 nM; stimulation of PBP-C1 and PBP-C3 mRNA levels by DHEA relative to 5-DIOL [8]: two to five times the effect; also recorded: two to five times more potent; reversal of the inhibitory effect of orchiectomy on ventral prostate weight (orchiectomized rats [6]; 10 mg dose, percutaneous): about 75%; androgenic activity of DHEA relative to 5-DIOL where equivalent estrogenic effects are provided (orchiectomized rats [6]; percutaneous administration): two to three times more androgenic activity; potency of DHEA relative to 5-DIOL in increasing seminal vesicle weight (orchiectomized rats [6]; percutaneous, ORCH rats): 1 fold |
